According to patent US5491242A, “Protein kinase C inhibitors” (Eli Lilly and Company, priority 1995, dated 1996):
Where two headings read alike, the source gives them in different places.

What was measured:
Assay type in all cases: biochemical
[1] = biological target: PKC alpha (Homo sapiens, UniProt P17252); experiment: PKC Enzyme Assay, alpha
Protocol: (§1) PKC enzymes=alpha, beta I, beta II, gamma, delta, epsilon, eta and zeta
(§2) Assay components in a total volume of 250 μL are the following:
(§3) Vesicles consisting of 120 μg/mL phosphatidylserine (Avanti Polar Lipids) and sufficient diacylglycerol (Avanti Polar Lipids) to activate the enzyme to maximum activity in 20 mM HEPES buffer (Sigma, St. Louis, Mo.), pH 7.5, 940 μM calcium chloride (Sigma, St. Louis, Mo.) for assaying the alpha, beta I, beta II and gamma enzyme only, 1 mM EGTA for all the enzymes, 10 mM magnesium chloride (Sigma, St. Louis, Mo.) and 30 μM (gamma-32P) ATP (DuPont). For all the enzymes either histone type HL (Worthington) or myelin basic protein is used as substrate. The assay is started by addition of protein kinase C enzyme incubated at 30° C. for 10 minutes and stopped by adding 0.5 mL of cold trichloroacetic acid (Amresco) followed by 100 μL of 1 mg/mL bovine serum albumin (Sigma, St. Louis, Mo.). The precipitate is collected by vacuum filtration on glass fiber filters employing a TOMTEC™ filtration system and quantified by counting in a beta scintillation counter.

[2] = biological target: PKC beta I (Homo sapiens, UniProt P05771); experiment: PKC Enzyme Assay, beta I; conditions: Table 1; read-out: IC50 β1
Chain of PKC beta I (P05771 whole entry): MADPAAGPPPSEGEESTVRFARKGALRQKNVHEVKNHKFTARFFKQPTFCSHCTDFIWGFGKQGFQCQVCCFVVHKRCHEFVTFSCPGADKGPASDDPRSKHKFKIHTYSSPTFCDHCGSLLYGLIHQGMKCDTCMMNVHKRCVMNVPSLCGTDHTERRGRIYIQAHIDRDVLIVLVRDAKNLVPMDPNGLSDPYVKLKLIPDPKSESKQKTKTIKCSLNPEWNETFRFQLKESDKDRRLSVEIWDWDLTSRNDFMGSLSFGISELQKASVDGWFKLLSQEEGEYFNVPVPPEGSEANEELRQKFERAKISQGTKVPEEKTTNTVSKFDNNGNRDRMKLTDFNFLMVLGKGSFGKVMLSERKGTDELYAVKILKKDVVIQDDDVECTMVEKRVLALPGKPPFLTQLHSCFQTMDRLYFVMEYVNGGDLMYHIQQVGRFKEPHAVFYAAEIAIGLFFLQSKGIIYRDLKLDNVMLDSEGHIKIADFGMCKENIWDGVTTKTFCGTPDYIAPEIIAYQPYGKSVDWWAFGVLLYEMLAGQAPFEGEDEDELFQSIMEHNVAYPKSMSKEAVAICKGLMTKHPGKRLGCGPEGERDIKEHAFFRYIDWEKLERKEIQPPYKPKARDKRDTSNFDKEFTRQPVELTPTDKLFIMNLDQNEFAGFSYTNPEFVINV
Protocol: as §1, §2, §3

[3] = biological target: PKC beta II (Homo sapiens, UniProt P05771); experiment: PKC Enzyme Assay, beta II
Chain of PKC beta II (P05771 1-673 isoform P05771-2): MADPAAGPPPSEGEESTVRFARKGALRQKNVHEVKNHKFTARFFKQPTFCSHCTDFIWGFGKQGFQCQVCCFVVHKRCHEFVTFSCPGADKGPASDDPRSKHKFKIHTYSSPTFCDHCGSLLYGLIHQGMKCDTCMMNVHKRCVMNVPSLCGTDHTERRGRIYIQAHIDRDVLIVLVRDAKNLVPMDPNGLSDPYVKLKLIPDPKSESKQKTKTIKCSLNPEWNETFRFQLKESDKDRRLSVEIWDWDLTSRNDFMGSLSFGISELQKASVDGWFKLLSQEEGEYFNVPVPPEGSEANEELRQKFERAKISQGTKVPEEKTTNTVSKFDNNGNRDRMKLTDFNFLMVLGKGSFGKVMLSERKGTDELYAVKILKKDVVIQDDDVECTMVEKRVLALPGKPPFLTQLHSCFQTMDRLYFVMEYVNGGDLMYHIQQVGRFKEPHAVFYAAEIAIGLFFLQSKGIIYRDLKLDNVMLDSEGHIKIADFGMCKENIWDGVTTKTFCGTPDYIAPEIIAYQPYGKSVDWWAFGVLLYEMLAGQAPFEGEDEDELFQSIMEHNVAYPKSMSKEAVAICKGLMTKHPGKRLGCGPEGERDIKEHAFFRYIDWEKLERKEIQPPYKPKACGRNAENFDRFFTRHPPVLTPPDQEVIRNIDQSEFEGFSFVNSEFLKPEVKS
Protocol: as §1, §2, §3

[4] = biological target: PKC gamma (Homo sapiens, UniProt P05129); experiment: PKC Enzyme Assay, gamma; conditions: Table 1
[5] = biological target: PKC delta (Homo sapiens, UniProt Q05655); experiment: PKC Enzyme Assay, delta; conditions: Table 1
Chain of PKC delta (Q05655 whole entry): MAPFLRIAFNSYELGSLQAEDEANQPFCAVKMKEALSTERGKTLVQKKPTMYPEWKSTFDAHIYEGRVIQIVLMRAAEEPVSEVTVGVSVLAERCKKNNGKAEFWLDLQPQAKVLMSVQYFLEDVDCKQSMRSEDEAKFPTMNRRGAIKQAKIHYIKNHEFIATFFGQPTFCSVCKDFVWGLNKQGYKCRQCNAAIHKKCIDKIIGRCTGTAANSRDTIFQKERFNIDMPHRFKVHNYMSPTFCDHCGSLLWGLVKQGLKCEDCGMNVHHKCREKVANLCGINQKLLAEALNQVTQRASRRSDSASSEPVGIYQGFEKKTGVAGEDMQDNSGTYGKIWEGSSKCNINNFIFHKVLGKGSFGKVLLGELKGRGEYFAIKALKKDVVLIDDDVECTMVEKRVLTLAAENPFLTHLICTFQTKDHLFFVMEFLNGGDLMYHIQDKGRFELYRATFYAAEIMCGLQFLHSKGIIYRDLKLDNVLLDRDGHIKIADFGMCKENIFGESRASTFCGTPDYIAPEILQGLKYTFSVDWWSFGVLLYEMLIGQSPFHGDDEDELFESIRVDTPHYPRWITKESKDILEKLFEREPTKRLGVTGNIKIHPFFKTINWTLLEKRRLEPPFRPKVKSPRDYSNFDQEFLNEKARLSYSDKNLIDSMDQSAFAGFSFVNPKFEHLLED

[6] = biological target: T1, PKC zeta (Homo sapiens, UniProt Q05513); experiment: PKC Enzyme Assay, zeta; conditions: Table 1
T1 sequence (Q05513 1-592): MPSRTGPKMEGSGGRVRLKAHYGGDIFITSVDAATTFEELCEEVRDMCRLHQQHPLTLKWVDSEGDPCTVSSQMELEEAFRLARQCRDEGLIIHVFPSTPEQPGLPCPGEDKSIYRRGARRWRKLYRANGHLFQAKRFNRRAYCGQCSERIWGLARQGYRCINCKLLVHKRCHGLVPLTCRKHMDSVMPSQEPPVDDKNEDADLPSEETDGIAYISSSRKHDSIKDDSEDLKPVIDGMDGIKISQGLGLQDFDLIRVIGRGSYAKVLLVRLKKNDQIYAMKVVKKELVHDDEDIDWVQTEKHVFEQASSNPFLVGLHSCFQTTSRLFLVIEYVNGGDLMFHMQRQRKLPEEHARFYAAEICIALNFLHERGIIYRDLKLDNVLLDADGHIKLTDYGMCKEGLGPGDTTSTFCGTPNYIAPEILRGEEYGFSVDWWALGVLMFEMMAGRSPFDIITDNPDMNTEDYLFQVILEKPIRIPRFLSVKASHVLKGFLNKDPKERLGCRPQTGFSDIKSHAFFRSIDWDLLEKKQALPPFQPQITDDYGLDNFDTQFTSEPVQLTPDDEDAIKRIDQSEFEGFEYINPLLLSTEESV
Protocol: as §1, §2, §3

Row | IC50 ([1]; Table 1, read-out: IC50 α) | IC50 [2] | IC50 ([3]; Table 1, read-out: IC50 β2) | IC50 [4] | IC50 [5] | IC50 [6] | IC50 ([1]; read-out: IC50 with respect to the alpha protein kinase C isozyme) | IC50 ([3]; read-out: 50% inhibition at a concentration for the beta-2 isozyme) | SMILES
1 | 83 µM | 8 µM | 2.6 µM | > 100 µM | > 100 µM | > 100 µM | – | – | CC(C)(C)OC(=O)N[C@@H](Cc1ccccc1)C(=O)n1cc(C2=C(c3cn(C(=O)[C@H](Cc4ccccc4)NC(=O)OC(C)(C)C)c4ccccc34)C(=O)NC2=O)c2ccccc21 [Example 3, 3,4-Bis[(1-N-^t BOC)-phenylalanine-3-indolyl]-1H-pyrrol-2,5-dione]
2 | – | 0.26 µM | – | 19 µM | 4.6 µM | 100 µM | 1.4 µM | 0.031 µM | CC(C)(C)OC(=O)NCC(=O)n1cc(C2=C(c3cn(CCCN=[N+]=[N-])c4ccccc34)C(=O)NC2=O)c2ccccc21 [Example 1, 3-[1-(3-azidopropyl)-3-indolyl]-4-[(1-N-^t BOC)-glycine-3-indolyl]-1H-pyrrol-2,5-dione]
